Results on two compounds are retold here after US10647743B2, “Method of making biologically active alpha-beta peptides” (priority 2008, dated 2020).

For one data set, the target named is gp41-5 (Human immunodeficiency virus type 1 group M subtype B, UniProt P04578, C598G/DEL582-595/DEL601-626/T627G/W596S). Briefly: biochemical. In kind it is binding, HIV. The note with it: competition FP.
The target in a further data set is T1, NHR α-peptide 1 (Human immunodeficiency virus type 1 group M subtype B, UniProt P04578).
T1 construct: made in house; host or cells: chemical synthesis (Fmoc solid phase)
Put plainly: CD thermal unfolding of 1:1 NHR + CHR peptide mixtures. In kind it is physicochemical, HIV. Conditions: Table 2; CD at 222 nm, 1:1 mixture with NHR α-peptide 1, PBS, 20 μM total peptide. Here is the method: The interactions of select α/β-peptides with the gp41 NHR domain were further investigated by circular dichroism (CD) spectroscopy. The CD spectra of 3, 4, 5, 8, 9 and were measured, both alone (see FIG. 5A) and in a 1:1 mixture with NHR α-peptide 1 (see FIGS. 3A, 3B, 3C, and 3D, respectively). See also FIGS. 5B and 5C for the superimposed spectra. […] The magnitude of the CD signatures among the well-folded mixtures (1+3, 1+5 and 1+10, FIGS. 3A, 3C, and 3D, respectively) are similar, but the ratio of intensities at 208 and 222 nm changes as a function of β-residue content (more β-residues tracks with a less intense peak at 222 nm).
The interactions of CHR α-peptide 3 and α/β-peptide analogues 4, 5, 8 and 10 with a peptide derived from the gp41 NHR domain (1) were investigated by circular dichroism (CD) spectroscopy. […] The magnitude of the CD signatures among the well-folded mixtures (1+3, 1+5, 1+8 and 1+10) are similar, but the ratio of intensities at 208 and 222 nm changes as a function of β-residue content (higher β-residue content is correlated with a less intense peak at 222 nm). This trend is consistent with previous studies on helical oligomers containing mixed α/β backbones.
Circular Dichroism Spectroscopy. Circular dichroism measurements were carried out on an Aviv 202SF Circular Dichroism Spectrophotometer. Samples of each peptide were prepared at 20 μM concentration in PBS. Solutions of 1:1 peptide mixtures were prepared by mixing equal volumes from the same 20 μM stock solutions used for individual peptide measurements. Spectra were recorded in a 1 mm cell with a step size of 1 nm and an averaging time of 5 sec. All spectra are background corrected against buffer measured in the same cell. Thermal melts were carried out in 5-degree increments with an equilibration time of 10 min between each temperature change. Thermal unfolding data were fit to a simple two state folding model Shortle, D.; Meeker, A. K.; Freire, E. Biochemistry 1988, 27, 4761-4768) using GraphPad Prism.

The target of data set [1] is T2, envelope glycoprotein of the HIV-1 clone HXB2 (Human immunodeficiency virus type 1 group M subtype B, UniProt P04578).
T2 construct: One cell line expresses HIV-1 Env (processed by cellular proteases to generate gp120+gp41); expressed in transfected cells; host or cells: CHO cells expressing HXB2 env (and Tat); U373-MAGI target cells
Put plainly: cell-cell fusion assay. It counts as cell-based.

The test system of a further data set is HIV-1 NL4-3. Conditions: read-out: Inhibition of HIV-1 infectivity, IC50 (nM), X4 strains, NL4-3; TZM-bl cells; mean ± S.E.M., three experiments.
The next data set deals with HIV-1 HC4. The note with it: read-out: Inhibition of HIV-1 infectivity, IC50 (nM), X4 strains, HC4; TZM-bl cells; mean ± S.E.M., three experiments.
The subject of another data set is HIV-1 CC 1/85. Conditions: read-out: Inhibition of HIV-1 infectivity, IC50 (nM), R5 strains, CC 1/85; TZM-bl cells; mean ± S.E.M., three experiments.
A further data set relates to HIV-1 DJ258. Conditions: read-out: Inhibition of HIV-1 infectivity, IC50 (nM), R5 strains, DJ258; TZM-bl cells; mean ± S.E.M., three experiments.
The target in data set [2] is T3, proteinase K (Parengyodontium album, UniProt P06873). Conditions: under the assay conditions.
T3 sequence (P06873 106-384): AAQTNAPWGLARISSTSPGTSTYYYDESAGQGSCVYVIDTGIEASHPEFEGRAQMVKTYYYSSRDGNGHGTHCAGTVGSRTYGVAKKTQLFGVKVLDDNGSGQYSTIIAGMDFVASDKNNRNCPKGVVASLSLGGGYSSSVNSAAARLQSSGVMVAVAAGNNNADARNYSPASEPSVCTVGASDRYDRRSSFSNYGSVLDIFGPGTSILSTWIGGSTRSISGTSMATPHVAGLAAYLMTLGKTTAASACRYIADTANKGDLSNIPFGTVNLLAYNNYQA
Data set [3] deals with T3, proteinase K. Put plainly: in vitro. The note with it: proteinase K solution in TBS.
The mark [4] stands for this setting: Table 4, read-out: gp41-5 binding affinity by FP Ki.

The term Ki denotes the dissociation constant of the complex between target and ligand, obtained from inhibition or displacement. The half-life is how long it takes for the measured level to halve. Higher therefore signals slow loss.

Read-outs that look alike come from different tables or passages of the source.

Turning to `CC[C@H](C)[C@H](NC(=O)[C@H](C)NC(=O)[C@H](CCCNC(=N)N)NC(=O)[C@H](CC(=O)O)NC(=O)[C@H](Cc1c[nH]c2ccccc12)NC(=O)[C@H](C)NC(=O)[C@H](CCC(=O)O)NC(=O)[C@H](Cc1c[nH]c2ccccc12)NC(=O)[C@@H](NC(=O)[C@@H](NC(C)=O)[C@@H](C)O)[C@@H](C)O)C(=O)N[C@@H](C)C(=O)N[C@@H](CCC(=O)O)C(=O)N[C@@H](Cc1ccc(O)cc1)C(=O)N[C@@H](C)C(=O)N[C@@H](C)C(=O)N[C@@H](CCCNC(=N)N)C(=O)N[C@H](C(=O)N[C@@H](CCC(=O)O)C(=O)N[C@@H](C)C(=O)N[C@@H](CC(C)C)C(=O)N[C@H](C(=O)N[C@@H](CCCNC(=N)N)CC(=O)N[C@@H](C)C(=O)N[C@@H](C)C(=O)N[C@@H](CCC(N)=O)C(=O)N[C@@H](CCC(=O)O)CC(=O)N[C@@H](CCC(N)=O)C(=O)N[C@@H](CCC(N)=O)C(=O)N[C@@H](CCC(=O)O)CC(=O)N[C@@H](CCCCN)C(=O)N[C@@H](CC(N)=O)C(=O)N[C@@H](CCC(=O)O)C(=O)N[C@@H](C)CC(=O)N[C@@H](C)C(=O)N[C@@H](CC(C)C)C(=O)N[C@@H](CCCNC(=N)N)CC(=O)N[C@@H](CCC(=O)O)C(=O)N[C@@H](CC(C)C)C(N)=O)[C@@H](C)CC)[C@@H](C)CC` [compound 5], the Ki is 0.0002 µM at gp41-5 (Table 2, read-out: gp41-5 Ki) and under 0.0002 µM at gp41-5 (setting [4]). For the same compound, on NHR α-peptide 1, the “NHR + CHR Tm (° C.)” value was 69 °C. Moreover, the IC50 was determined as 0.007 ± 0.002 µM in data set [1]; 10 ± 2 nM with HIV-1 NL4-3; 55 ± 8 nM in the data set on HIV-1 HC4; 270 ± 20 nM in the data set with HIV-1 CC 1/85; 280 ± 90 nM in the data set with HIV-1 DJ258.

As to `CC[C@H](C)[C@H](NC(=O)[C@H](C)NC(=O)[C@H](CCCNC(=N)N)NC(=O)[C@H](CC(=O)O)NC(=O)[C@H](Cc1c[nH]c2ccccc12)NC(=O)[C@H](C)NC(=O)[C@H](CCC(=O)O)NC(=O)[C@H](Cc1c[nH]c2ccccc12)NC(=O)[C@@H](NC(=O)[C@@H](NC(C)=O)[C@@H](C)O)[C@@H](C)O)C(=O)N[C@@H](C)C(=O)N[C@@H](CCC(=O)O)C(=O)N[C@@H](Cc1ccc(O)cc1)C(=O)N[C@@H](C)C(=O)N[C@@H](C)C(=O)N[C@@H](CCCNC(=N)N)C(=O)N[C@H](C(=O)N[C@@H](CCC(=O)O)C(=O)N[C@@H](C)C(=O)N[C@@H](CC(C)C)C(=O)N[C@H](C(=O)N[C@@H](CCCNC(=N)N)C(=O)N[C@@H](C)C(=O)N[C@@H](C)C(=O)N[C@@H](CCC(N)=O)C(=O)N[C@@H](CCC(=O)O)C(=O)N[C@@H](CCC(N)=O)C(=O)N[C@@H](CCC(N)=O)C(=O)N[C@@H](CCC(=O)O)C(=O)N[C@@H](CCCCN)C(=O)N[C@@H](CC(N)=O)C(=O)N[C@@H](CCC(=O)O)C(=O)N[C@@H](C)C(=O)N[C@@H](C)C(=O)N[C@@H](CC(C)C)C(=O)N[C@@H](CCCNC(=N)N)C(=O)N[C@@H](CCC(=O)O)C(=O)N[C@@H](CC(C)C)C(N)=O)[C@@H](C)CC)[C@@H](C)CC` [compound 3, reference compound], the Ki on gp41-5 (Table 2, read-out: gp41-5 Ki) is at most 0.0002 µM; at gp41-5 (setting [4]) it was under 0.0002 µM; on gp41-5 (read-out: Ki for gp41-5), under 0.0002 µM. Further, the “NHR + CHR Tm (° C.)” value at NHR α-peptide 1 was determined as 77 °C. For the same compound, the IC50 in data set [1] stood at 0.009 ± 0.003 µM; in the data set with HIV-1 NL4-3, 5 ± 0.6 nM; with HIV-1 HC4, 27 ± 4 nM; in the data set with HIV-1 CC 1/85 it was 140 ± 20 nM; in the data set on HIV-1 DJ258, 58 ± 6 nM. Besides, the “degradation by proteinase K” value on proteinase K [2] was “completely degraded within minutes”. The half-life at 20 μM on proteinase K [3] (Tritirachium album (source organism of proteinase K)) and at proteinase K [3] was 42 s throughout.
